According to patent publication US10179777B2, “3-(1H-benzimidazol-2-yl)-1H-pyridin-2-one derivatives” (MERCK PATENT GMBH, priority 2015, dated 2019):
pIC50: −log10 of the molar value. Structures can show the parent of a compound that is named as a salt.

Assays:
[1] = molecular target: T1, ALK5 (TGFβR1; GST-modified TGFBR1 (200-503)) (Homo sapiens, UniProt P36897); experiment: ALK5 kinase inhibition assay (33P-ATP filter binding, Reaction Biology); type: biochemical; conditions: casein substrate, 200 μM ATP
T1 construct: Using GST-Modified TGFBR1 (200-503); GST
T1 sequence (P36897 200-503): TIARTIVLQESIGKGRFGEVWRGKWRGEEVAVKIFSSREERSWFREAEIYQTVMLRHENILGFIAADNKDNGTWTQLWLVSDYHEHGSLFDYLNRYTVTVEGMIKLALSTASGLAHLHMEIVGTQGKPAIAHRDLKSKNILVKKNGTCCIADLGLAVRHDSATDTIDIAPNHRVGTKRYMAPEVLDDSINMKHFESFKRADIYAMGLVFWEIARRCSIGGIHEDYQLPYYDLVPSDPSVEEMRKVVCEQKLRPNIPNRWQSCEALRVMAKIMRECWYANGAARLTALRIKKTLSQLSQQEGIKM
Method: (§1) The protein sequences of the kinases targeted and accompanying information are described in publically available data base http://www.uniprot.org/uniprot/for ALK1 www.uniprot.org/uniprot/P37023, for ALK2 www.uniprot.org/uniprot/Q04771 and for ALK5 www.uniprot.org/uniprot/P36897. IC50 determination of the novel inhibitors described was performed at Reaction Biology Corp., Malvern, Pa., USA, with assay conditions open to public at www.reactionbiology.com/webapps/site/KinaseDetail.aspx?page=Kinases&id=1, and www.reactionbiology.com/webapps/site/Kinase Assay Protocol.aspx. In addition, they were specified previously in Anastassiadis et al. Nat. Biotechnol. 29(11): 1039-1045. doi:10.1038/nbt.2017.
A3) ALK5 Kinase Inhibition Assay Was Performed Similar to Procedures A1 and A2 Using GST-Modified TGFBR1 (200-503) and 1 mg/ml Casein as Substrate at 200 μM ATP.

[2] = molecular target: T2, ALK2 (GST-modified kinase domain ACVR1(145-509)) (Homo sapiens, UniProt Q04771); experiment: ALK2 kinase inhibition assay (33P-ATP filter binding, Reaction Biology); type: biochemical; conditions: casein substrate, 20 μM ATP (Km ATP), 120 min ambient temperature
T2 construct: N-terminally GST-modified kinase domain ACVR1(145-509); GST (N)
T2 sequence (Q04771 145-509): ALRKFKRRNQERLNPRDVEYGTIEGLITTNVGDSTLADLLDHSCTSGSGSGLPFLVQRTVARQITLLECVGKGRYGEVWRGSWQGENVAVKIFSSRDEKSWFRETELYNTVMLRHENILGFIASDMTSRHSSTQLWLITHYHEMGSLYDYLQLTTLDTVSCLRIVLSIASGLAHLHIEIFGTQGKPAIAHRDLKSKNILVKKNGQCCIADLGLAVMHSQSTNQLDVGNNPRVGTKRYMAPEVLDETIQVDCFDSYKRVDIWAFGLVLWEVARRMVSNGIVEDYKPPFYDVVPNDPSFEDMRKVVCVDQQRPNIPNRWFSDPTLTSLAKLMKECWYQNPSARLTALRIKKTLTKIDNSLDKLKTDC
Method: as §1
A2) ALK2 Kinase Inhibition Assay
(§2) was performed similar to procedure A1 with N-terminally GST-modified kinase domain ACVR1(145-509) and 1 mg/ml Casein as substrate in reaction buffer of 20 mM HEPES pH 7.5, 10 mM MgCl2, 1 mM EGTA, 0.02% Brij, 0.02 mg/ml BSA, 0.1 mM Na3VO4, 2 mM DTT, 1% DMSO. […] Reactions were carried out at ambient temperature for 120 min, followed by spotting of the reactions onto P81 ion exchange filter paper (Whatman Inc., Picataway, N.J., USA). Unbound phosphate was removed by extensive washing of filters in 0.75% phosphoric acid. After subtraction of background derived from control reactions without enzyme activity, kinase activity data was expressed as the percent remaining kinase activity in test samples compared to vehicle (DMSO) reactions. IC50 values and curve fits were obtained using Prism (GraphPad Software).

[3] = molecular target: T3, ALK1 (GST-modified kinase domain ACVRL1 (139-503)) (Homo sapiens, UniProt P37023); experiment: ALK1 kinase inhibition assay (33P-ATP filter binding, Reaction Biology); type: biochemical; conditions: casein substrate, 100 μM ATP (Km ATP), 120 min ambient temperature
T3 construct: N-terminally GST-modified kinase domain ACVRL1 (139-503); GST (N)
T3 sequence (P37023 139-503): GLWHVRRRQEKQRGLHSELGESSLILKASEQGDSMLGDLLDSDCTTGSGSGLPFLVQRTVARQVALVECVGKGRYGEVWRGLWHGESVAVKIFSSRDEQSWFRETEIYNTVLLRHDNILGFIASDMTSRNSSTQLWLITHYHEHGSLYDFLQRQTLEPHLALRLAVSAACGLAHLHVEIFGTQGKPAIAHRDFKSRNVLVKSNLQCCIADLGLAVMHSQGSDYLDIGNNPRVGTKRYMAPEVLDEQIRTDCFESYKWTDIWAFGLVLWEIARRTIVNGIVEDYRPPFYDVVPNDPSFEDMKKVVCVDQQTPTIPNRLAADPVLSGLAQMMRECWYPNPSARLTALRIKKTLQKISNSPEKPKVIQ
Method: as §1
A1) ALK1 Kinase Inhibition Assay
as §2, with “performed” for “performed similar to procedure A1”, “domain ACVRL1 (139-503)” for “domain ACVR1(145-509)”, “and 20” for “and 1”

[4] = system: ALK1-mediated SMAD1/5 phosphorylation in HUVEC cells; experiment: Cell-based immunofluorescence assay for ALK1-mediated SMAD1/5 phosphorylation in HUVEC cells; conditions: Homo sapiens, 1.5 ng/ml BMP-9 with compound for 2 h, % nuclei with pSMAD1/5 signal, read-out: Smad 1/5 IC50
Outline: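 Serum-starved primary HUVEC (≤5 passages) were treated with compound (1 nM-30 μM, 10 doses, 0.5% DMSO) plus 1.5 ng/ml BMP-9 for 2 h at 37° C. Cells were then fixed and immunostained for phospho-Smad1/5 (Ser463/465), and % positive nuclei were counted by confocal imaging. Data were normalised to DMSO (0%) and 10 μM reference inhibitor (−100%).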

O=c1[nH]cc(-c2cc(CO)ccc2Cl)cc1-c1nc2cc(N3CCNCC3)ccc2[nH]1 [Compound A22, 5-(2-Chloro-5-hydroxymethyl-phenyl)-3-(5-piperazin-1-yl-1H-benzimidazol-2-yl)-1H-pyridin-2-one dihydrochloride]
pIC50 [1]: 5.68
pIC50 [2]: 7.80
pIC50 [3]: 8.46
pIC50 [4]: 5.48

O=c1[nH]cc(-c2cccc(CO)c2F)cc1-c1nc2cc(N3CCNCC3)ccc2[nH]1 [Compound A23, 5-(2-Fluoro-3-hydroxymethyl-phenyl)-3-(5-piperazin-1-yl-1H-benzimidazol-2-yl)-1H-pyridin-2-one]
pIC50 [1]: 5.80
pIC50 [2]: 7.66
pIC50 [3]: 8.70
pIC50 [4]: 6.89

NC1CCN(c2ccc3[nH]c(-c4cc(-c5cccc(CO)c5)c[nH]c4=O)nc3c2)CC1 [Compound A26, 3-[5-(4-Amino-piperidin-1-yl)-1H-benzimidazol-2-yl]-5-(3-hydroxymethyl-phenyl)-1H-pyridin-2-one dihydrochloride]
pIC50 [1]: 5.72
pIC50 [2]: 7.51
pIC50 [3]: 8.30
pIC50 [4]: 5.74

CN1CCN(c2ccc3[nH]c(-c4cc(-c5cccc(CO)c5)c[nH]c4=O)nc3c2)CC1 [Compound A27, 5-(3-Hydroxymethyl-phenyl)-3-[5-(4-methyl-piperazin-1-yl)-1H-benzimidazol-2-yl]-1H-pyridin-2-one]
pIC50 [1]: 5.77
pIC50 [2]: 7.92
pIC50 [3]: 7.89
pIC50 [4]: 6.35

CN1CCN(c2ccc3[nH]c(-c4cc(-c5ccnc6ccccc56)c[nH]c4=O)nc3c2)CC1 [Compound A29, 3-[5-(4-Methyl-piperazin-1-yl)-1H-benzimidazol-2-yl]-5-quinolin-4-yl-1H-pyridin-2-one]
pIC50 [1]: 5.77
pIC50 [2]: 7.20
pIC50 [3]: 7.04
pIC50 [4]: 5.43

CN1CCCN(c2ccc3[nH]c(-c4cc(-c5cccc(CO)c5)c[nH]c4=O)nc3c2)CC1 [Compound A33, 5-(3-Hydroxymethyl-phenyl)-3-[5-(4-methyl-[1,4]diazepan-1-yl)-1H-benzimidazol-2-yl]-1H-pyridin-2-one]
pIC50 [1]: 5.72
pIC50 [2]: 7.96
pIC50 [3]: 7.85
pIC50 [4]: 6.05

CN1CCN(c2ccc3[nH]c(-c4cc(-c5ccc(F)c(CO)c5)c[nH]c4=O)nc3c2)CC1 [Compound A34, 5-(4-Fluoro-3-hydroxymethyl-phenyl)-3-[5-(4-methyl-piperazin-1-yl)-1H-benzimidazol-2-yl]-1H-pyridin-2-one]
pIC50 [1]: 5.32
pIC50 [2]: 7.70
pIC50 [3]: 7.52
pIC50 [4]: 5.70

CN1CCN(c2ccc3[nH]c(-c4cc(-c5ccc(CO)cc5)c[nH]c4=O)nc3c2)CC1 [Compound A35, 5-(4-Hydroxymethyl-phenyl)-3-[5-(4-methyl-piperazin-1-yl)-1H-benzimidazol-2-yl]-1H-pyridin-2-one]
pIC50 [1]: 5.49
pIC50 [2]: 7.96
pIC50 [3]: 7.80
pIC50 [4]: 6.14

CN(C)C1CCN(c2ccc3[nH]c(-c4cc(-c5cccc(CO)c5)c[nH]c4=O)nc3c2)CC1 [Compound A36, 3-[5-(4-Dimethylamino-piperidin-1-yl)-1H-benzimidazol-2-yl]-5-(3-hydroxymethyl-phenyl)-1H-pyridin-2-one formate]
pIC50 [1]: 5.96
pIC50 [2]: 7.66
pIC50 [3]: 8.54
pIC50 [4]: 6.62

O=c1[nH]cc(-c2ccnc3[nH]ccc23)cc1-c1nc2cc(Oc3ccncc3)ccc2[nH]1 [Compound A40, 3-[5-(Pyridin-4-yloxy)-1H-benzimidazol-2-yl]-5-(1H-pyrrolo[2,3-b]pyridin-4-yl)-1H-pyridin-2-one]
pIC50 [1]: 5.09
pIC50 [2]: 7.25
pIC50 [3]: 7.14
pIC50 [4]: 5.28

O=c1[nH]cc(-c2ccnc3[nH]ccc23)cc1-c1nc2cc(N3CCOCC3)ccc2[nH]1 [Compound A41, 3-(5-Morpholin-4-yl-1H-benzimidazol-2-yl)-5-(1H-pyrrolo[2,3-b]pyridin-4-yl)-1H-pyridin-2-one]
pIC50 [1]: 6.37
pIC50 [2]: 8.15
pIC50 [3]: 8.00
pIC50 [4]: 6.72

O=c1[nH]cc(-c2ccnc3[nH]ccc23)cc1-c1nc2cc(N3CCCCC3)ccc2[nH]1 [Compound A43, 3-(5-Piperidin-1-yl-1H-benzimidazol-2-yl)-5-(1H-pyrrolo[2,3-b]pyridin-4-yl)-1H-pyridin-2-one]
pIC50 [1]: 6.06
pIC50 [2]: 7.43
pIC50 [3]: 7.35
pIC50 [4]: 5.74

O=c1[nH]cc(-c2ccnc3[nH]ccc23)cc1-c1nc2cc(N3CCNCC3)ccc2[nH]1 [Compound A44, 3-(5-Piperazin-1-yl-1H-benzimidazol-2-yl)-5-(1H-pyrrolo[2,3-b]pyridin-4-yl)-1H-pyridin-2-one dihydrochloride]
pIC50 [1]: 6.85
pIC50 [2]: 8.22
pIC50 [3]: 8.40
pIC50 [4]: 5.00

O=c1[nH]cc(-c2cccc3[nH]ccc23)cc1-c1nc2cc(N3CCNCC3)ccc2[nH]1 [Compound A48, 5-(1H-Indol-4-yl)-3-(5-piperazin-1-yl-1H-benzimidazol-2-yl)-1H-pyridin-2-one]
pIC50 [1]: 5.85
pIC50 [2]: 7.66
pIC50 [3]: 7.77
pIC50 [4]: 6.00

Cc1cc2c(-c3c[nH]c(=O)c(-c4nc5cc(N6CCNCC6)ccc5[nH]4)c3)ccnc2[nH]1 [Compound A48a, 5-(2-Methyl-1H-pyrrolo[2,3-b]pyridin-4-yl)-3-(5-piperazin-1-yl-1H-benzimidazol-2-yl)-1H-pyridin-2-one]
pIC50 [1]: 6.89
pIC50 [2]: 7.36
pIC50 [3]: 7.31
pIC50 [4]: 5.57

CN1CCCN(c2ccc3[nH]c(-c4cc(-c5ccnc6[nH]ccc56)c[nH]c4=O)nc3c2)CC1 [Compound A49, 3-[5-(4-Methyl-[1,4]diazepan-1-yl)-1H-benzimidazol-2-yl]-5-(1H-pyrrolo-[2,3-b]pyridin-4-yl)-1H-pyridin-2-one]
pIC50 [1]: 6.55
pIC50 [2]: 7.59
pIC50 [3]: 8.85
pIC50 [4]: 5.43
